Measured values: patent US8394832B2, “Methods and compositions using immunomodulatory compounds for the treatment of immunodeficiency disorders” (Celgene Corporation, priority 2004, dated 2013)

How the values were obtained:
Assay type in all cases: cell-based, human
B cells = experiment: B cell proliferation by BrdU ELISA; conditions: 3 days (FIG. 7A)
Description: (§1) Human buffy coat (50 ml) was diluted with 50 ml sterile PBS (Ca^++, Mg^++ free), and mixed gently. A 25 ml aliquot of diluted buffy coat was transferred to each 50 ml centrifuge tube, and Histopaque-1077 (14 ml, #1077-1, Sigma) was gently layered into the bottom of the tube. The sample was centrifuged at 2,000 rpm for 30 min at room temperature. The interface containing mononuclear cells was transferred into 50 ml centrifuge tube, and washed once with PBS (1200 rpm, 5 min). The supernatant was discarded. Cell pellet was resuspended in Miltenyi buffer. Anti-CD19^+ microbeads were added to the suspension (10^7 cells in 80 μl of buffer, 20 μl antibody beads for 10^7 cells) and incubated for 15 min at 4° C. Cell pellet was washed once and resuspended in 1 ml Miltenyi buffer. The cell suspension was added to the magnetic column, washed with 10 ml Miltenyi buffer in the column. CD19^+ cells are released by 1 ml Miltenyi Buffer without magnetic field. CD19^+ cells were washed twice with RPMI complete medium. B cells (2×10^5) were plated in 96 well plate.
B cells were pretreated with 1,3-dioxo-(2,6-dioxopiperidin-3-yl)-4-aminoisoindoline or 1-oxo-(2,6-dioxopiperidin-3-yl)-4-aminoisoindoline at the concentrations of 60 μM, 6 μM, 0.6 μM, 0.06 μM, 0.006 μM, and 0.0006 μM for 30 min, then were added 2 μg/ml of anti-IgM, 2 μg/ml of anti CD40, 40 ng/ml IL-4, 100 ng/ml of recombinant BAFF, and/or 0.5 μg/ml of LPS. B cells were typically treated with the immunomodulatory compound alone or in presence of one or more of above stimuli for 3 days. Stimulated B cells with or without the treatment with immunomodulatory compound were used for cell proliferation assay and cytokines analysis.
The crosslinking of B cell receptor antigen (“BCR”) is the primary signal for B cell activation in response to antigen, and is critical in initializing subsequent B cell activation, proliferation, and differentiation. To assess B cell activation, B cells were treated with 1,3-dioxo-(2,6-dioxopiperidin-3-yl)-4-aminoisoindoline or 1-oxo-(2,6-dioxopiperidin-3-yl)-4-aminoisoindoline in presence of stimuli for 3 days. 25 μl BrdU was added to 250 μl cell culture 24 hours before harvesting cells. B cells were dried at 60° C. after removal of labeling supernatant. 100 μl FixDenat solution was added to fix cells for 30 min at room temperature. FixDenat solution was removed by tapping plate, then 100 μl anti-BrdU-POD was added each well for 90 min, at room temperature, and the plate was washed three 3 times. 100 μl of substrate was added to plate for 10 min, then 100 μl stop solution was added. Absorbance was measured by using an ELISA microplate reader (Molecular Devices) at OD 450 nm. […]

TLR 9 = TLR 9 expression by FACS array in B cells; conditions: 0.0006-60 μM, in combination with other stimuli, particularly IgM, 3 days (FIGS. 8A-8D)
Description: as §1
B cells were plated in 96 well plate and treated with 1,3-dioxo-(2,6-dioxopiperidin-3-yl)-4-aminoisoindoline at concentrations of 60 μM, 6 μM, 0.6 μM, 0.06 μM, 0.006 μM and 0.0006 μM in presence of stimuli for 3 days. […] B cells were resuspended in 150 μl PBS containing 1% BSA and read in FACS array instrument (BD Bioscience).

STAT6 = experiment: Western blotting of phospho-STAT6 in IL-4 stimulated CD-19 B cells; conditions: B cells pretreated 30 minutes, then 100 ng/ml IL-4 for 30 minutes (FIG. 11D)
Description: CD-19 B cells (2×10^6/ml) were pretreated with 1,3-dioxo-(2,6-dioxopiperidin-3-yl)-4-aminoisoindoline at 10 μM and 1 μM for 30 minutes. IL-4 (100 ng/ml) was added to cell suspension for 30 minutes, and the cell pellet was washed once by PBS and lysed with 50 μl of the sample buffer. Cell lysates were heated at 100° C. for 5 minutes, and 20 μl of cell lysates were loaded to 4-20% Tris-glycine SDS-PAGE (Invitrogen). The transferred membrane was blotted with 1: 1000 anti-phopho STAT6 antibody (Cell signaling) for overnight at 4° C. prior to secondary HRP conjugated anti rabbit antibody. The signal of the membrane was developed by ECL kit, following the manufacturer's instructions.
Because activation of STAT6 is important in IL-4 induced IgE and IgG1 class switching, whether immunomodulatory compounds could inhibit phosphorylation of STAT6 was investigated. B cells were pretreated with 1,3-dioxo-(2,6-dioxopiperidin-3-yl)-4-aminoisoindoline for 30 minutes, then stimulated with 100 ng/ml of IL-4 for 30 minutes. The activation of STAT6 was assessed by anti-phospho-STAT6 (Tyr 641).

Nc1cccc2c1C(=O)N(C1CCC(=O)NC1=O)C2=O (stereo not shown) [1,3-dioxo-(2,6-dioxopiperidin-3-yl)-4-aminoisoindoline]
B cell proliferation (B cells; combined with IgM (anti-IgM)): enhance
effect on B cell activation/proliferation (B cells; compound alone): minimal effect
TLR 9 expression (TLR 9): increase
phosphorylation of STAT6 (Tyr 641) (STAT6): block phosphorylation of STAT6
